Data from patent US11278534B2, “Enantiomers of substituted thiazoles as antiviral compounds” (Innovative Molecules GmbH, priority 2017, dated 2022).
In brackets after ≈: the same amount, converted by molar mass.

Tests used:
Human Carboanhydrase II = Human Carboanhydrase II (Homo sapiens, UniProt P00918); experiment: carbonic anhydrase activity assay (pH indicator method); format: biochemical; conditions: for carbonic anhydrase inhibition: result in words
HSV-1 ACV resistant = experiment: activity selectivity assay, HSV-1 ACV resistant; format: cell-based; conditions: Human alphaherpesvirus 1
Experimental: (§1) HSV (HSV-1 Walki, HSV-1F, HSV-2 MS, HSV clinical isolates and HSV resistant strains) was cultivated on Vero cells (ATCC CCL-81) under the following conditions: The cells were grown in M199 medium (5% foetal calf serum, 2 mM glutamine, 100 IU/mL penicillin, 100 μg/mL streptomycin) in cell culture bottles at 37° C. and 5% CO2. The cells were splitted twice per week (1:4). For the infection, the medium was removed, the cells were washed with Hank's solution, detached using 0.05% trypsin, 0.02% EDTA and incubacted at a density of 4×10^5 cells/mL under the above-mentioned conditions for 24 h. The medium was removed and the virus solution was added at an m.o.i of <0.05 in a volume of 2 mL per 175 cm^2 surface. The infected cells were incubated at 37° C., 5% CO2 for 1 h and then the medium was made up to a volume of 50 mL per 175 cm^2 bottle. […] The virus was released by freezing (−80° C.) and thwawing (37° C.) the infected cultures twice. Cell debris was removed by centrifugation (300 g, 10 min, 4° C.) and the supernatant was frozen in aliquots at −80° C.
(§2) The virus titre was determined using a plaque assay. To this end, Vero cells were seeded in 24-well plates at a density of 4×10^5 cells per well and, after 24 h of incubation (37° C., 5% CO2) infected with 100 μL of inoculum (dilutions (10^−2 to 10^−12) of the virus stock). 1 h after the infection, the medium was removed and the cells were covered with 1 mL of overlay medium (0.5% methylcellulose, 0.22% sodium bicarbonate, 2 mM glutamine, 100 IU/mL penicillin, 100 μg/mL streptomycin, 5% foetal calf serum in MEM-Eagle medium with Earl's salt) and incubated for 3 d in a cell incubator at (37° C., 5% CO2). The cells were then fixated using 4% formaline for 1 h, washed with water, stained with Giemsa for 30 min and then washed and dried. Using a plaque viewer, the virus titre was determined.
(§3) The antiviral action was determined using a patented (DE10235967 and WO2004/015416) and subsequently published activity selectivity assay (G. Kleymann et al. J. Biomol. Screen. 2004; 9, 578) in 96- or 384-well mictrotitre plates using various cell lines of neuronal, lymphoid and epithelial origin, such as, for example, Vero (african green monkey kidney cells), MEF (murine embryonal fibroblasts), HELF (human embryonal fibroblasts), NT2 (human neuronal cell line) or Jurkat (human lymphoid T-cell line). The relevant experimental details of the above mentioned patent and publication to evaluate the antiviral activity of the invention (disclosed compounds) are described below.
(§4) The effect of the substances on the spreading of the cytopathogenic effect was determined in comparision to the reference compound acyclovir-sodium (Zovirax™), a clinically approved anti-herpes chemotherapeutic.
(§5) The compounds (50 mM stock solution dissolved in DMSO) are examined on microtitre plates (for example 96-well flat bottom cell culture plates) at a final concentration of 250 to 0.5 μM or, in case of potent antiviral compounds, 250 to 0.5 nM in 2 to 4 replications (4 to 2 substances per plate). Also examined are toxic and cytostatic effects or precipitation of the compounds. […]

HSV-1 [1] = experiment: activity selectivity assay, HSV-1 infected Vero cells; format: cell-based; conditions: Human alphaherpesvirus 1
Experimental: as §1, §2, §3, §4, §5

HSV-1 [2] = experiment: animal model, intranasal HSV-1 infection of mice, survival; format: in vivo, BALB/cABom strain; conditions: Human alphaherpesvirus 1, inhaled or nasal, 120 h; HSV-1, mice, treatment for 5 days; read-out: ED50 (50% of the infected animals survive)
Experimental: (§6) Animal experiments were performed according to patent WO2001/047904 or subsequent publications (U. A. K. Betz et al. Antimicrob. Agents Chemother. 2002:46, 1766 or G. Kleymann et al. Nat. Med. 2002; 8, 392). The relevant experimental details of the above mentioned patent and publication to evaluate the antiviral activity of the invention (disclosed compounds) in-vivo (animal models) are described below.
(§7) 6 week-old female mice, BALB/cABom strain were obtained from a commercial breeder.
(§8) Infection: The animals were anaesthetized with Et2O in a sealed glass vessel. 50 μL of a dilution of the virus stock (infection dose 5×10^4 PFU (Plaque forming units)) were introduced into the nose of the anaesthetized animals using a pipette. In 90 to 100% of the animals, this infection dose causes death by generalized infection with prominent repiratory and central-nervous symptoms on average after 5 to 8 days.
(§9) 6 hours after infection animals were treated with doses of 0.1-150 mg/kg of body mass, 3 times per day at 7 am, […] (tid) or 2 times per day at 7 am and […] (bid) or once daily at […] (od) for a period of 5 days. […] After the last administration, the animals were monitored further and the time of death was determined.

HSV-2 [3] = experiment: activity selectivity assay, HSV-2 infected Vero cells; format: cell-based; conditions: Human alphaherpesvirus 2
Experimental: as §1, §2, §3, §4, §5

HSV-2 [4] = experiment: animal model, intranasal HSV-2 infection of mice, survival; format: in vivo, BALB/cABom strain; conditions: Human alphaherpesvirus 2, inhaled or nasal, 120 h; HSV-2, mice, treatment for 5 days; read-out: ED50 (50% of the infected animals survive)
Experimental: as §6, §7, §8, §9

[5] = aqueous solubility (PBS, pH 7.4), shake flask; format: physicochemical
Experimental: The aqueous solubility (PBS, pH 7.4) was determined at Eurofins, Cerep, Panlabs according to C. A. Lipinski et al. Adv. Drug Del. Rev. 1997:46, 3. Measurement of the aqueous solubility was performed according to Lipinski, C. A. et al. Adv. Drug Del. Rev. 1997:46, 3. The relevant information from the literature is described below. […] In addition, chromatographic purity (%) was defined as the peak area of the principal peak relative to the total integrated peak area in the HPLC chromatogram of the calibration standard.

Compound | IC50 (Human Carboanhydrase II) [µM] | carbonic anhydrase inhibition (Human Carboanhydrase II) | IC50 (HSV-1 ACV resistant) [nM] | IC50 (HSV-1 [1]) [nM] | ED50 (HSV-1 [2]) [mg/kg] | IC50 (HSV-2 [3]) [nM] | ED50 (HSV-2 [4]) [mg/kg] | solubility at 24 h ([5]; aqueous buffer, kinetic from dmso stock, pH 7.4, shake flask, 24 h incubation, rt, read-out: Solubility [μM] (PBS, pH 7.4, 200 μM Test concentration)) [µM] | increase of aqueous solubility in comparison to Example 87 (WO2001/047904) ([5]; pH 7.4)
Cc1nc(N(C)C(=O)Cc2ccc(-c3cc(F)ccc3F)cc2)sc1[S@@](C)(=N)=O [Example 7(−), (−)-(S)-2-(2′,5′-Difluoro-[1,1′-biphenyl]-4-yl)-N-methyl-N-(4-methyl-5-(S-methylsulfonimidoyl)thiazol-2-yl)acetamide] | > 10 | no or significantly reduced carbonic anhydrase inhibition | 10 to 50 | 10 to 50 | < 5 | 10 to 50 |  |  | 
Cc1nc(N(C)C(=O)Cc2ccc(-c3cc(F)ccc3F)cc2)sc1S(C)(=N)=O (racemic) [Example 7, 2-(2′,5′-Difluoro-[1,1′-biphenyl]-4-yl)-N-methyl-N-(4-methyl-5-(S-methylsulfonimidoyl)thiazol-2-yl)acetamide] | > 10 | no or significantly reduced carbonic anhydrase inhibition | 25 to 100 | 25 to 100 | < 10 | 25 to 100 | < 10 | 5 (≈ 2.18 µg/mL) | at least one order of mangitude
